Laboratory results as given in patent US20060263802A1 (priority 2003, published 2006).
“Also recorded” adds a separate entry of the source.

Key:
Format in all cases: binding
[1] = system: human monoclonal antibody CRJA
[2] = system: human monoclonal antibody CRJA; remark: listed apart in the source
[3] = system: human monoclonal antibody CRJB
[4] = system: human monoclonal antibody CR57
[5] = system: human monoclonal antibody CR57; remark: listed apart in the source
[6] = system: human monoclonal antibody CRJB; remark: listed apart in the source

NGIILGPDGNVLIPE was tested, and the “Binding of CRJA to linear peptide (PEPSCAN-ELISA signal)” value (shortened to “Binding of CRJA to linear peptide”) [1] was 89, the “Binding of CRJA (10 μg/ml) to looped/cyclic peptide (PEPSCAN-ELISA)” value [2] was 85 and the “Binding of CRJB to linear peptide (PEPSCAN-ELISA signal)” value (“Binding of CRJB to linear peptide” for short) [3] was 146. The “Binding of CR57 to linear peptide (PEPSCAN-ELISA signal)” value (“Binding of CR57 to linear peptide” below) [4] was 102, the “Binding of CR57 (10 μg/ml) to looped/cyclic peptide (PEPSCAN-ELISA)” value [5] was 104 and the “Binding of CRJB (10 μg/ml) to looped/cyclic peptide (PEPSCAN-ELISA)” value [6] was 85.
In the case of NGVFFNGIILGPDGN, the “Binding of CRJA to linear peptide” value [1] is reported as 62, the “Binding of CRJA (10 μg/ml) to looped/cyclic peptide (PEPSCAN-ELISA)” value [2] is reported as 46 and the “Binding of CRJB to linear peptide” value [3] is reported as 117. The “Binding of CR57 to linear peptide” value [4] was 66, the “Binding of CR57 (10 μg/ml) to looped/cyclic peptide (PEPSCAN-ELISA)” value [5] was 58 and the “Binding of CRJB (10 μg/ml) to looped/cyclic peptide (PEPSCAN-ELISA)” value [6] was 85.
NHDYTIWMPENPRLG was tested, and the “Binding of CRJA to linear peptide” value [1] was 108, the “Binding of CRJA (10 μg/ml) to looped/cyclic peptide (PEPSCAN-ELISA signal)” value [2] was 123 and the “Binding of CRJB to linear peptide” value [3] was 119. The “Binding of CR57 to linear peptide” value [4] was 71, the “Binding of CR57 (10 μg/ml) to looped/cyclic peptide (PEPSCAN-ELISA signal)” value [5] was 170 and the “Binding of CRJB (10 μg/ml) to looped/cyclic peptide (PEPSCAN-ELISA signal)” value [6] was 186. For the same sequence, the “binding of antibody CRJB to looped/cyclic peptide (PEPSCAN OD)” value [6] was “display reactivity; also recorded: clearly bound”.
With NKTLMEADAHYKSVR the “Binding of CRJA to linear peptide” value [1] was 94, the “Binding of CRJA (10 μg/ml) to looped/cyclic peptide (PEPSCAN-ELISA)” value [2] was 98 and the “Binding of CRJB to linear peptide” value [3] was 116. For the same sequence, the “Binding of CR57 to linear peptide” value [4] was 104, the “Binding of CR57 (10 μg/ml) to looped/cyclic peptide (PEPSCAN-ELISA)” value [5] was 120 and the “Binding of CRJB (10 μg/ml) to looped/cyclic peptide (PEPSCAN-ELISA)” value [6] was 97.
With NLHDFRSDEIEHLVV the “Binding of CRJA to linear peptide” value [1] was 97, the “Binding of CRJA (10 μg/ml) to looped/cyclic peptide (PEPSCAN-ELISA)” value [2] was 86 and the “Binding of CRJB to linear peptide” value [3] was 113. For the same sequence, the “Binding of CR57 to linear peptide” value [4] was 83, the “Binding of CR57 (10 μg/ml) to looped/cyclic peptide (PEPSCAN-ELISA)” value [5] was 90 and the “Binding of CRJB (10 μg/ml) to looped/cyclic peptide (PEPSCAN-ELISA)” value [6] was 62.
In the case of NLSGFSYMELKVGYI, the “Binding of CRJA to linear peptide” value [1] is reported as 94, the “Binding of CRJA (10 μg/ml) to looped/cyclic peptide (PEPSCAN-ELISA signal)” value [2] is reported as 90 and the “Binding of CRJB to linear peptide” value [3] is reported as 115. The “Binding of CR57 to linear peptide” value [4] was 61, the “Binding of CR57 (10 μg/ml) to looped/cyclic peptide (PEPSCAN-ELISA signal)” value [5] was 68 and the “Binding of CRJB (10 μg/ml) to looped/cyclic peptide (PEPSCAN-ELISA signal)” value [6] was 83.
NLVVEDEGCTNLSGF was tested, and the “Binding of CRJA to linear peptide” value [1] was 85, the “Binding of CRJA (10 μg/ml) to looped/cyclic peptide (PEPSCAN-ELISA signal)” value [2] was 74 and the “Binding of CRJB to linear peptide” value [3] was 119. The “Binding of CR57 to linear peptide” value [4] was 75, the “Binding of CR57 (10 μg/ml) to looped/cyclic peptide (PEPSCAN-ELISA signal)” value [5] was 106 and the “Binding of CRJB (10 μg/ml) to looped/cyclic peptide (PEPSCAN-ELISA signal)” value [6] was 92.
With NNLVVEDEGCTNLSG the “Binding of CRJA to linear peptide” value [1] was 93, the “Binding of CRJA (10 μg/ml) to looped/cyclic peptide (PEPSCAN-ELISA signal)” value [2] was 88 and the “Binding of CRJB to linear peptide” value [3] was 99. The “Binding of CR57 to linear peptide” value [4] was 72, the “Binding of CR57 (10 μg/ml) to looped/cyclic peptide (PEPSCAN-ELISA signal)” value [5] was 86 and the “Binding of CRJB (10 μg/ml) to looped/cyclic peptide (PEPSCAN-ELISA signal)” value [6] was 75.
With NPRLGMSCDIFTNSR the “Binding of CRJA to linear peptide” value [1] was 82, the “Binding of CRJA (10 μg/ml) to looped/cyclic peptide (PEPSCAN-ELISA signal)” value [2] was 91 and the “Binding of CRJB to linear peptide” value [3] was 113. The “Binding of CR57 to linear peptide” value [4] was 90, the “Binding of CR57 (10 μg/ml) to looped/cyclic peptide (PEPSCAN-ELISA signal)” value [5] was 78 and the “Binding of CRJB (10 μg/ml) to looped/cyclic peptide (PEPSCAN-ELISA signal)” value [6] was 101.
With NPYPDYRWLRTVKTT the “Binding of CRJA to linear peptide” value [1] was 106, the “Binding of CRJA (10 μg/ml) to looped/cyclic peptide (PEPSCAN-ELISA signal)” value [2] was 84 and the “Binding of CRJB to linear peptide” value [3] was 102. The “Binding of CR57 to linear peptide” value [4] was 85, the “Binding of CR57 (10 μg/ml) to looped/cyclic peptide (PEPSCAN-ELISA signal)” value [5] was 89 and the “Binding of CRJB (10 μg/ml) to looped/cyclic peptide (PEPSCAN-ELISA signal)” value [6] was 92.
With NQVSGVDLGLPNWGK the “Binding of human monoclonal antibody CRJA to linear peptide (PEPSCAN-ELISA signal)” value [1] was 103, the “Binding of CRJA to looped/cyclic peptide (PEPSCAN-ELISA signal)” value [2] was 79 and the “Binding of human monoclonal antibody CRJB to linear peptide (PEPSCAN-ELISA signal)” value [3] was 138. The “Binding of human monoclonal antibody CR57 to linear peptide (PEPSCAN-ELISA signal)” value [4] was 78, the “Binding of CR57 to looped/cyclic peptide (PEPSCAN-ELISA signal)” value [5] was 84 and the “Binding of CRJB to looped/cyclic peptide (PEPSCAN-ELISA signal)” value [6] was 128.
NSRGKRASKGSETCG was tested, and the “Binding of CRJA to linear peptide” value [1] was 63, the “Binding of CRJA (10 μg/ml) to looped/cyclic peptide (PEPSCAN-ELISA signal)” value [2] was 71 and the “Binding of CRJB to linear peptide” value [3] was 100. The “Binding of CR57 to linear peptide” value [4] was 92, the “Binding of CR57 (10 μg/ml) to looped/cyclic peptide (PEPSCAN-ELISA signal)” value [5] was 107 and the “Binding of CRJB (10 μg/ml) to looped/cyclic peptide (PEPSCAN-ELISA signal)” value [6] was 60.
With NVLIPEMQSSLLQQH the “Binding of CRJA to linear peptide” value [1] was 92, the “Binding of CRJA (10 μg/ml) to looped/cyclic peptide (PEPSCAN-ELISA)” value [2] was 110 and the “Binding of CRJB to linear peptide” value [3] was 120. The “Binding of CR57 to linear peptide” value [4] was 72, the “Binding of CR57 (10 μg/ml) to looped/cyclic peptide (PEPSCAN-ELISA)” value [5] was 97 and the “Binding of CRJB (10 μg/ml) to looped/cyclic peptide (PEPSCAN-ELISA)” value [6] was 99.
In the case of NWKMAGDPRYEESLH, the “Binding of CRJA to linear peptide” value [1] is reported as 69, the “Binding of CRJA (10 μg/ml) to looped/cyclic peptide (PEPSCAN-ELISA signal)” value [2] is reported as 93 and the “Binding of CRJB to linear peptide” value [3] is reported as 101. The “Binding of CR57 to linear peptide” value [4] was 58, the “Binding of CR57 (10 μg/ml) to looped/cyclic peptide (PEPSCAN-ELISA signal)” value [5] was 94 and the “Binding of CRJB (10 μg/ml) to looped/cyclic peptide (PEPSCAN-ELISA signal)” value [6] was 78.
